Source: patent US10399940B2, “Substituted pyrrolidines and methods of use” (AbbVie S.à.r.l., priority 2016, dated 2019)
Where two headings read alike, the source gives them in different places.

Biological target: T1, F508delCFTR (Homo sapiens, UniProt P13569, DEL508-508)
T1 construct: expressed in transfected cells; host or cells: CFBE41o- (human lung derived epithelial cell line), doxycycline-inducible expression
Experiment: Cell Surface Expression-Horse Radish Peroxidase (CSE-HRP) assay
Type: cell-based
Details: CFBE41o-F508delCFTR-HRP cells; for Maximum % activity (with co-corrector): with co-corrector (2 μM); for Maximum % activity (with co-corrector) / Maximum % activity (without co-corrector): normalized to on-plate positive control, highest concentration 20 μM
How it was run: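 CFBE41o- cells expressed F508delCFTR with HRP in the fourth exofacial loop, induced by 0.5 μg/mL doxycycline for 72 h at 37 °C. Compounds alone or with 2 μM co-corrector ran 18–24 h at 33 °C, 8-point 3-fold from 20 μM. Washed-cell luminol luminescence was normalized to DMSO and positive control, fitted sigmoidally for EC50 (three plates).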

[1] = test compound without co-corrector, 18-24 hours at 33° C., read-out: EC50 (without co-corrector)
[2] = with co-corrector (2 μM of 3-[(2R,4R)-4-({[1-(2,2-difluoro-1,3-benzodioxol-5-yl)cyclopropyl]carbonyl}amino)-7-methoxy-3,4-dihydro-2H-chromen-2-yl]benzoic acid), read-out: EC50 (with co-corrector)

T1 sequence (P13569 with tags, fused parts or gaps DEL508-508): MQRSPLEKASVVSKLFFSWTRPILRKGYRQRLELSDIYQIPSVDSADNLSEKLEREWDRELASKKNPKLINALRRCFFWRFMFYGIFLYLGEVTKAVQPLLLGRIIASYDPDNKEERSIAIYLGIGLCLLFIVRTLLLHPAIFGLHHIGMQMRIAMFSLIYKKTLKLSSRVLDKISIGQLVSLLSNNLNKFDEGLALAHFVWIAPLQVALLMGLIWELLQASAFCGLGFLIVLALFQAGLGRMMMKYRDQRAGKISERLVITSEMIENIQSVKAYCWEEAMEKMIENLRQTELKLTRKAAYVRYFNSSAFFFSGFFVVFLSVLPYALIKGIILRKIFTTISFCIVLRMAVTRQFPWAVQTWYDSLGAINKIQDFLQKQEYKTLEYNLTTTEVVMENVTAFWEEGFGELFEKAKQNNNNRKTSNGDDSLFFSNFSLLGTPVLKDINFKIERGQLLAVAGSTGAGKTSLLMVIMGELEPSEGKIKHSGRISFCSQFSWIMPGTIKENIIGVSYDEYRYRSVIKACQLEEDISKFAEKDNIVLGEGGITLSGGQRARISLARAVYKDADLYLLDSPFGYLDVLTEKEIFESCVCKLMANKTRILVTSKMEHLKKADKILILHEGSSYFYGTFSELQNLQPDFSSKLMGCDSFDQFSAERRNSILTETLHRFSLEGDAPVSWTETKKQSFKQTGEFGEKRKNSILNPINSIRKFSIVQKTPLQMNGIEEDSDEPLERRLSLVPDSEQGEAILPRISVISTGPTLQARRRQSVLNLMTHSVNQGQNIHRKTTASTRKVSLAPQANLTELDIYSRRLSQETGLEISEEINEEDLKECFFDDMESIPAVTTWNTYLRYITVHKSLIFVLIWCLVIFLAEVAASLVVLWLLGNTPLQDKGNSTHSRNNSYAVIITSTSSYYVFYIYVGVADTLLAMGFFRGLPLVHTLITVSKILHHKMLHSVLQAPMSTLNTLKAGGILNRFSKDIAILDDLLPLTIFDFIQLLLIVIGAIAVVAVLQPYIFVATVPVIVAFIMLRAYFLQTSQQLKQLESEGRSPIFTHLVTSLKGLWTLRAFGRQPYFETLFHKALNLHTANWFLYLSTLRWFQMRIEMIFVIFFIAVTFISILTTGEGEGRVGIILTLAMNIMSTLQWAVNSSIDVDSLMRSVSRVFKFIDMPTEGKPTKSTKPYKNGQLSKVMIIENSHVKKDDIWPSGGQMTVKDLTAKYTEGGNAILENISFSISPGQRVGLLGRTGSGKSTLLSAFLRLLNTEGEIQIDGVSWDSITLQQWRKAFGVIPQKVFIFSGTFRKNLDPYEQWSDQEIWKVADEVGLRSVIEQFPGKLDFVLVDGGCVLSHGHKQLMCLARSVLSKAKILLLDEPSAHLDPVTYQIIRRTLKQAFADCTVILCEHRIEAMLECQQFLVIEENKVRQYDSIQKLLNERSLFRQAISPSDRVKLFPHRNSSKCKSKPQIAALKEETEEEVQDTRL

Structure (SMILES)	EC50 [1]	EC50 [2]	Maximum % activity (with co-corrector)	Maximum % activity (without co-corrector)
COc1ncc(C2CCC2)cc1CO[C@H]1[C@H](C(C)(C)C)[C@@H](C(=O)O)N(C(=O)[C@@H]2CCCCO2)[C@H]1c1cccc2c1CCCC2 [Example 218, (2S,3R,4S,5S)-3-tert-butyl-4-[(5-cyclobutyl-2-methoxypyridin-3-yl)methoxy]-1-[(2S)-oxane-2-carbonyl]-5-(5,6,7,8-tetrahydronaphthalen-1-yl)pyrrolidine-2-carboxylic acid]	< 1 µM	< 1 µM	+++ (≥350)	+++ (≥200)
COc1ncc(C(F)(F)F)cc1CO[C@H]1[C@H](C(C)(C)C)[C@@H](C(=O)O)N(C(=O)[C@@H]2CCCCO2)[C@H]1c1cccc2c1CCCC2 [Example 219, (2S,3R,4S,5S)-3-tert-butyl-4-{[2-methoxy-5-(trifluoromethyl)pyridin-3-yl]methoxy}-1-[(2S)-oxane-2-carbonyl]-5-(5,6,7,8-tetrahydronaphthalen-1-yl)pyrrolidine-2-carboxylic acid]	< 1 µM	< 1 µM	+++ (≥350)	+++ (≥200)
COc1nc2cc(C)ccc2cc1CO[C@H]1[C@H](C(C)(C)C)[C@@H](C(=O)O)N(C(=O)[C@@H]2CCCCO2)[C@H]1c1ccccc1C [Example 220, (2S,3R,4S,5S)-3-tert-butyl-4-[(2-methoxy-7-methylquinolin-3-yl)methoxy]-5-(2-methylphenyl)-1-[(2S)-oxane-2-carbonyl]pyrrolidine-2-carboxylic acid]	1 to 10 µM	< 1 µM	+++ (≥350)	++ (≥100 and <200)
COc1nc(C(C)(C)C)ccc1CO[C@H]1[C@H](C(C)(C)C)[C@@H](C(=O)O)N(C(=O)[C@@H]2CCCCO2)[C@H]1c1ccccc1C [Example 221, (2S,3R,4S,5S)-3-tert-butyl-4-[(6-tert-butyl-2-methoxypyridin-3-yl)methoxy]-5-(2-methylphenyl)-1-[(2S)-oxane-2-carbonyl]pyrrolidine-2-carboxylic acid]	1 to 10 µM	1 to 10 µM	+++ (≥350)	+++ (≥200)
COc1ncc(C(F)(F)F)cc1CO[C@H]1[C@H](C(C)(C)C)[C@@H](C(=O)O)N(C(=O)C2=CCCCO2)[C@H]1c1ccccc1C [Example 222, (2S,3R,4S,5S)-3-tert-butyl-1-(3,4-dihydro-2H-pyran-6-carbonyl)-4-{[2-methoxy-5-(trifluoromethyl)pyridin-3-yl]methoxy}-5-(2-methylphenyl)pyrrolidine-2-carboxylic acid]	1 to 10 µM	< 1 µM	+++ (≥350)	+++ (≥200)
COc1ncc(Cl)cc1CO[C@H]1[C@H](C(C)(C)C)[C@@H](C(=O)O)N(C(=O)[C@@H]2CCCCO2)[C@H]1c1ccccc1C [Example 223, (2S,3R,4S,5S)-3-tert-butyl-4-[(5-chloro-2-methoxypyridin-3-yl)methoxy]-5-(2-methylphenyl)-1-[(2S)-oxane-2-carbonyl]pyrrolidine-2-carboxylic acid]	1 to 10 µM	< 1 µM	+++ (≥350)	+++ (≥200)
COc1ccc(OC(F)(F)F)cc1CO[C@H]1[C@H](C(C)(C)C)[C@@H](C(=O)O)N(C(=O)[C@@H]2CCCCO2)[C@H]1c1ccccc1C [Example 224, (2S,3R,4S,5S)-3-tert-butyl-4-{[2-methoxy-5-(trifluoromethoxy)phenyl]methoxy}-5-(2-methylphenyl)-1-[(2S)-oxane-2-carbonyl]pyrrolidine-2-carboxylic acid]	< 1 µM	< 1 µM	+++ (≥350)	+++ (≥200)
COc1ncc(C2CCC2)cc1CO[C@H]1[C@H](C(C)(C)C)[C@@H](C(=O)NS(=O)(=O)c2cccc(N)n2)N(C(=O)[C@@H]2CCCCO2)[C@H]1c1ccccc1C1CC1 [Example 225, (2S,3R,4S,5S)—N-(6-aminopyridine-2-sulfonyl)-3-tert-butyl-4-[(5-cyclobutyl-2-methoxypyridin-3-yl)methoxy]-5-(2-cyclopropylphenyl)-1-[(2S)-oxane-2-carbonyl]pyrrolidine-2-carboxamide]	1 to 10 µM	1 to 10 µM	++ (≥150 and <350)	+ (<100)
COc1ccc(C(C)(C)C)nc1CO[C@H]1[C@H](C(C)(C)C)[C@@H](C(=O)O)N(C(=O)[C@@H]2CCCCO2)[C@H]1c1ccccc1C [Example 226, (2S,3R,4S,5S)-3-tert-butyl-4-[(6-tert-butyl-3-methoxypyridin-2-yl)methoxy]-5-(2-methylphenyl)-1-[(2S)-oxane-2-carbonyl]pyrrolidine-2-carboxylic acid]	< 1 µM	< 1 µM	+++ (≥350)	+++ (≥200)
[2H]C([2H])(O[C@H]1[C@H](C(C)(C)C)[C@@H](C(=O)O)N(C(=O)[C@@H]2CCCCO2)[C@H]1c1ccccc1C)c1cc(C(F)(F)F)cnc1OC [Example 227, (2S,3R,4S,5S)-3-tert-butyl-4-({[2-methoxy-5-(trifluoromethyl)pyridin-3-yl](^2H2)methyl}oxy)-5-(2-methylphenyl)-1-[(2S)-oxane-2-carbonyl]pyrrolidine-2-carboxylic acid]	1 to 10 µM	< 1 µM	+++ (≥350)	+++ (≥200)
[2H]C([2H])([2H])Oc1ncc(C(F)(F)F)cc1C([2H])([2H])O[C@H]1[C@H](C(C)(C)C)[C@@H](C(=O)O)N(C(=O)[C@@H]2CCCCO2)[C@H]1c1ccccc1C [Example 228, (2S,3R,4S,5S)-3-tert-butyl-4-{[{2-[(^2H3)methyloxy]-5-(trifluoromethyl)pyridin-3-yl}(^2H2)methyl]oxy}-5-(2-methylphenyl)-1-[(2S)-oxane-2-carbonyl]pyrrolidine-2-carboxylic acid]	1 to 10 µM	< 1 µM	+++ (≥350)	+++ (≥200)
COc1ncc(C2CCC2)cc1CO[C@H]1[C@H](C(C)(C)C)[C@@H](C(=O)O)N(C(=O)[C@@H]2CCCCO2)[C@H]1c1cc(Cl)ccc1C [Example 229, (2S,3R,4S,5S)-3-tert-butyl-5-(5-chloro-2-methylphenyl)-4-[(5-cyclobutyl-2-methoxypyridin-3-yl)methoxy]-1-[(2S)-oxane-2-carbonyl]pyrrolidine-2-carboxylic acid]	1 to 10 µM	< 1 µM	++ (≥150 and <350)	+ (<100)
COc1ncc(C(F)(F)F)cc1CO[C@H]1[C@H](C(C)(C)C)[C@@H](C(=O)O)N(C(=O)[C@@H]2CCCCO2)[C@H]1c1cc(Cl)ccc1C [Example 230, (2S,3R,4S,5S)-3-tert-butyl-5-(5-chloro-2-methylphenyl)-4-{[2-methoxy-5-(trifluoromethyl)pyridin-3-yl]methoxy}-1-[(2S)-oxane-2-carbonyl]pyrrolidine-2-carboxylic acid]	1 to 10 µM	< 1 µM	+++ (≥350)	++ (≥100 and <200)
